Experimental data: patent publication US20060040298A1, “Rhesus monkey NURR1 nuclear receptor” (priority 2004, published 2006)

Experiments:
Assay type in all cases: cell-based, Macaca mulatta (rhesus monkey)
[1] = molecular target: T1, GR/NURR1 chimera receptor (NURR1 LBD) (UniProt P06536+P43354); test: Relative transactivation of GR/NURR1 chimera receptor versus GR/LXRβ chimeric receptor, MMTV-luciferase reporter; conditions: test analytes at 0, 1, 10, and 30 μM in DMSO; 48 hours post-transfection; FIG. 8
T1 construct: expressed in transfected cells
Procedure: Relative transactivation of GR/NURR1 chimera receptor in response to a panel of test analytes was determined.
An MMTV-luciferase reporter gene expression cassette was cotransfected with a gene expression cassette comprising DNA encoding either the chimeric receptor GR/NURR1 or a chimeric receptor comprising GR/LXRβ under transfection conditions similar to those in Example 3.
Expression vector GR/LXRβ was prepared in a similar manner to the GR/PPARα chimeric receptor in Example 5. […]
The next day, the transfected cells were washed and then refed with the appropriate medium containing 5% activated charcoal-stripped serum. […] The results are shown in FIG. 8 and are expressed as a relative activity in which the activity at each concentration that was obtained with cells transfected with the GR/NURR1 was divided by the corresponding activity that was obtained from cells cotransfected with the GR/LXRβ. […]

[2] = molecular target: T2, GR/NURR1 chimera (rat GR DBD fused to rhNURR1 LBD) (UniProt P06536+P43354); test: GR/NURR1 chimera transactivation of the MMTV-LUC reporter in transfected CHO cells; conditions: FIG. 6; for NURR1 agonist activity: CHO cells co-transfected with GR/NURR1 chimera and reporter gene expression cassette; for luciferase expression from the MMTV-LUC reporter plasmid: CHO cells, compared to compound F and TOFA
T2 construct: expressed in transfected cells; host or cells: CHO cells, transient transfection of the pSG5 plasmid
Description: A nucleic acid encoding a chimeric nuclear receptor comprising the rat glucocorticoid receptor (GR) DBD fused to the rhNURR1 LBD was constructed and the nucleic acid inserted downstream of the SV40 promoter in plasmid pSG5. The rat GR DBD consists of about amino acid 1 to about amino acid 505 and the rhNURR1 LBD consists of the amino acid sequence beginning from about amino acid 329 to about amino acid 598 (See FIG. 2). A nucleic acid encoding the rat GR DBD, which consisted of nucleotides 1 to 1583 (and which included the proximal 5′ untranslated sequences), was ligated to the nucleic encoding the rhNURR1 (nucleotides 329 to 1794). At the junction in the fusion protein between amino acid 505 of the rat GR DBD and amino acid 329 of the rhNURR1 LDB there are three extra amino acids, Alanine, Arginine, and Glutamic acid, which are encoded by the oligonucleotide 5′-GCTCGAGAA-3′ (SEQ ID NO:11) which includes an XhoI restriction enyme site.
The chimeric nuclear receptor was constructed by ligating the rat GRDBD encoding nucleotide fragment (nucleotides 1 to 1583) to the rhNURR1 LBD encoding nucleotide fragment (nucleotides 329 to 1794) and then inserting the ligated GRDBD/rhNURR1 LBD nucleotide fragments into the pSG5 plasmid expression vector between the EcoRI and BamHI sites.
A reporter gene expression cassette comprising the MMTV(2xGRE) promoter was constructed as described in Schmidt et al., Mol. Endocrinol. 6(10):1634-41 (1992).
A routine transient transfection assay for identifying agonists of rhNURR1 activity is described. While the transfection uses the FuGENE6 method of Roche Applied Science, Indianapolis, Ind., other transfection methods can be used.
In general, the method consists of plating about 0.8 to 1×10^4 transfected COS-1 or CHO cells per well of 96-well tissue culture plates which are UV and visible light transparent. The media that the cells are plated in is exponential growth medium which consists of phenol red-free DMEM containing 10% fetal bovine serum and 1× penicillin/streptomycin. Incubation conditions are 37° C. and 5% CO2. The transfection is done in batch mode.
For a transfection, the cells are trypsinized and resuspended to about 8×10^4 cells/mL in fresh medium. FuGENE6 is mixed with serum-free medium (for example, OPTIMEM, Invitrogen, Carlsbad, Calif.) at a ratio of 2 to 3. About 0.625 ng of DNA encoding the chimeric receptor of Example 2 and 0.625 ng DNA comprising the MMTV promoter operably linked to the luciferase gene (MMTV-LUC) are added to the FuGENE6 in serum-free medium and the mixture incubated at room temperature for about 20 minutes. The mixture is then added to one mL of the cell suspension and 100 μL aliquots plated to the wells of a 96-well tissue culture plate. Thus, a total ten wells contain cells, each containing about 8,000 cells. About 16 to 24 hours after transfection, for each well, about 1 uL of an analyte in a vehicle such as DMSO is added to the well. At least one well is reserved as a control and receives the vehicle alone. After 24 hours exposure to the analytes, the cells are assayed for luciferase activity. The cells are lysed by a Promega cell culture lysis buffer for approximately 30 min and then the luciferase activity in the extracts is assayed in the 96-well format liminometer (MICROBETA JET 1450, Perkin Elmer, Boston, Mass.). Results are calculated as fold induction of compound treated cells over control treated cells.
The CHO cells were transfected as in Example 3. […]

[3] = molecular target: T1, GR/NURR1 chimera receptor (NURR1 LBD); test: Relative transactivation of GR/NURR1 chimera receptor versus GR/PPARα chimeric receptor, MMTV-luciferase reporter; conditions: test analytes at 0, 1, 10, and 30 μM in DMSO; FIG. 7
Procedure: The relative transactivation of GR/NURR1 chimera receptor in response to a panel of test analytes was determined.
To further verify the selective NURR1 LBD-compound interactions, the same compounds were added to cells that had been co-transfected with the MMTV-luciferase reporter gene expression cassette and a gene expression cassette comprising DNA encoding either the chimeric receptor GR/NURR1 or a chimeric GR/PPARα receptor under conditions similar to those in Example 5.
Expression vector 3GR/PPARα contained the chimeric GR/PPARα receptor in which DNA encoding the DNA binding domain of GR was fused to the ligand binding domain of mouse PPARα was inserted into plasmid pSG5 (See Boie et al., J. Biol. Chem. 268: 5530-[…] (1993)).
Then, aliquots of the transfected cells were treated with test analytes at 0, 1, 10, and 30 μM concentrations in DMSO. The test analytes included Bicalutamide, Lovastatin, ZOCOR, and various SARM compounds. The results are shown in FIG. 7 and are expressed as a relative activity in which the activity at each concentration that was obtained with the extracts from the cells cotransfected with GR/NURR1 was divided by the corresponding activity that was obtained from extracts from the cells cotransfected with GR/PPARα. Other chimeric receptors other than GR/PPARα can be used. […]

T2 sequence (P06536+P43354 fused, change not shown): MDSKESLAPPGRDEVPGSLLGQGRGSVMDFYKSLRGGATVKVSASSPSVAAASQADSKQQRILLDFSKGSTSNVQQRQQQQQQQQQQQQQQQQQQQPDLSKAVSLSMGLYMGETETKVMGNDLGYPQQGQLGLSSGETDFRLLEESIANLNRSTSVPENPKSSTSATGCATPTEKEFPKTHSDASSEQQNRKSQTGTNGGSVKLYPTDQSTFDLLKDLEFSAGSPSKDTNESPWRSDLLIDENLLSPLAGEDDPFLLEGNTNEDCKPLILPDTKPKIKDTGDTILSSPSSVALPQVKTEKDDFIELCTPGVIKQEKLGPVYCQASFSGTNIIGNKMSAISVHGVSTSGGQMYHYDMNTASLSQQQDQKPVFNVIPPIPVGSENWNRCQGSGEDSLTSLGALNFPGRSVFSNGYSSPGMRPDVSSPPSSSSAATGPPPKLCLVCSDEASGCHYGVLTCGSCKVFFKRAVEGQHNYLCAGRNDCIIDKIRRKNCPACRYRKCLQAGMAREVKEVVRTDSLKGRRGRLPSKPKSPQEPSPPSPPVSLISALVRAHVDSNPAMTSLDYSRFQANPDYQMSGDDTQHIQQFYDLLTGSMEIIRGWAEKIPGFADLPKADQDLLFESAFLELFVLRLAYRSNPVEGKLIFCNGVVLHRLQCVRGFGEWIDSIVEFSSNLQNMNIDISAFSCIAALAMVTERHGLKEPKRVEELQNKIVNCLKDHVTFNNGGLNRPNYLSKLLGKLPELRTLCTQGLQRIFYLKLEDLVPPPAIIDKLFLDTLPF
T1 sequence (P06536+P43354 fused, change not shown): as above

| SMILES | relative activity (GR/NURR1 activity divided by GR/LXRβ activity) [1] | NURR1 agonist activity [2] | luciferase expression from the MMTV-LUC reporter plasmid [2] | relative activity (GR/NURR1 activity divided by GR/PPARα activity) [3] |
| --- | --- | --- | --- | --- |
| CC[C@H](C)C(=O)O[C@H]1C[C@@H](C)C=C2C=C[C@H](C)[C@H](CC[C@@H]3C[C@@H](O)CC(=O)O3)[C@H]21 [Lovastatin] | increase in activity | NURR1 agonists | increase in luciferase expression | increase in activity |
| CCCCCCCCCCCCCCOc1ccc(C(=O)O)o1 [TOFA, 5-(tetradecyloxy)-2-furoic acid] | – | NURR1 agonists | – | – |
| CCC(C)(C)C(=O)O[C@H]1C[C@@H](C)C=C2C=C[C@H](C)[C@H](CC[C@@H]3C[C@@H](O)CC(=O)O3)[C@H]21 [ZOCOR] | increase in activity | NURR1 agonists | increase in luciferase expression | increase in activity |
